Assays:
[1] = target: T1, porcine pancreatic lipase (PPL) (Sus scrofa, UniProt P00591); settings: pig, 3 h, pH 11.5
T1 sequence (P00591 1-450): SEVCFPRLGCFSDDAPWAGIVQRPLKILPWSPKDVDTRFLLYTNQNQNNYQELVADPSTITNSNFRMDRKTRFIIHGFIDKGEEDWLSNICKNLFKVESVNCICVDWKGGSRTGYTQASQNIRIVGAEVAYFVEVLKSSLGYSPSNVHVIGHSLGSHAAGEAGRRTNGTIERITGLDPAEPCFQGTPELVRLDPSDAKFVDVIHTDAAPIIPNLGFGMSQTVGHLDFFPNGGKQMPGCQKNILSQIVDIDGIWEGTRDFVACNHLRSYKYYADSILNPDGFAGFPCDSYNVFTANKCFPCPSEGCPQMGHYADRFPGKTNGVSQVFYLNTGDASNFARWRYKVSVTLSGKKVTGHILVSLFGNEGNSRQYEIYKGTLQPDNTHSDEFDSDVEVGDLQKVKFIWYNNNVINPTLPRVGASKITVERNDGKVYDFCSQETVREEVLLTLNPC
T1 sequence (P02703 23-112 partner): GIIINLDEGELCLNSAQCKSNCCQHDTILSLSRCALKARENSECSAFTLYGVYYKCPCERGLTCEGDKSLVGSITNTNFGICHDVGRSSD
Source text: Because many fatty acids are only partially ionised at pH 6.8, direct titration gives only partial picture of the extent of lipid digestion, instead back titration to pH 11.5 or GC-FAME analysis is required to estimate the full extent of digestion.

[2] = test system: rabbit gastric lipase (RGL) followed by porcine pancreatic lipase (PPL)
Protocol: 10 wt % oil in water emulsions stabilised by 0.3 wt % polyoxyethylene sorbitan mono-oleate (Tween® 80) were prepared by mixing the Tween 80 into the oil phase at 40° C., then mixing with the water phase using a magnetic stirrer. An emulsion was then created using a Hielscher UP 400S ultrasonic probe homogeniser equipped with a 5 mm diameter rod-like probe by applying 100% amplitude at 100% cycle for 2 minutes whilst the sample was cooled using ice water.
The lipid emulsion (2 mL) containing 200 mg of fat was subjected to gastrointestinal in vitro lipolysis. […] For gastric digestion, the sample was incubated for 90 minutes with 8.5 mL of simulated gastric fluid (SGF), which consisted of 150 mM NaCl, 450 U/mL pepsin, 18 U/mL rabbit gastric lipase at 37° C. and a pH of 5.5.
The intestinal digestion step was performed in the pH stat where the pH was kept constant at 6.8 by addition of NaOH (0.05 M). […] The intestinal digestion step starts when the temperature reaches 37±0.5° C. The pH was adjusted to pH 6.8 and after incubation of two minutes at this pH and temperature, a pancreatin solution (5 mM tris, 150 mM NaCl at pH 6.8) was added. The final composition of the intestinal fluid was 10 mM CaCl2, 12 mM mixed bile salts, 0.75 mM phospholipid, 150 mM NaCl and 4 mM tris(hydroxymethyl)aminomethane buffer. The intestinal digestion step was carried out for 3 hours in a titration manager from Radiometer. During the intestinal phase of digestion, the kinetics of digestion were followed using a pH-stat (TIM856, Radiometer) technique and expressed as titratable acid (rather than fatty acid) that was calculated by the equation: TA=VNaOH×0:05×1000
TA: Total titratable acid released, mmol; VNaOH: volume of NaOH used to titrate the released acid in 3 h, mL.

**Q.** With `CCCC(=O)OCC(COC(=O)CCC)OC(=O)CCC` [tributyrin] as the compound, how does the Extent of digestion [1] read?
**A.** 101.5±0.9%

**Q.** And the “Total amount of acid released” value ([2]; rabbit (gastric lipase), pig (pancreatic lipase), 3 h, pH 6.8)?
**A.** 381 ± 20 µmol

**Q.** And the “Initial lipolysis rate in SIF” value ([2]; rabbit (gastric lipase), pig (pancreatic lipase), pH 6.8)?
**A.** 44.1 ± 8.8 µmol/min

**Q.** What about the “Lipolysis by gastric lipase” value ([2]; rabbit, 90 min, 19 mg/mL, pH 5.5) of the same compound?
**A.** ~60%

— patent publication US12661334B2, “Dietary butyrate and its uses” (SOCIETE DES PRODUITS NESTLE S.A., priority 2019, dated 2026)
